pKi: −log10 of the molar value.
target: IMPDH human type II (Homo sapiens, UniProt P12268); assay: IMPDH activity inhibition assay (spectrophotometric, NADH formation at 340 nm); type: biochemical; details: not given
Procedure: We have measured the inhibition constants of each compound against IMPDH using an adaptation of the method first reported by […]. Moyed, and […]. Biol. Chem., 226, p. 339 (1957)]. We measured the inhibition constants of the compounds listed in Table III utilizing the following protocol: IMP dehydrogenase activity was assayed following an adaptation of the method first reported by […]. Moyed, H. S. and […]. Biol. Chem. 226, 339]. Enzyme activity was measured spectrophotometrically, by monitoring the increase in absorbance at 340 nm due to the formation of NADH (ε340 is 6220 M^-1 cm^-1). The reaction mixture contained 0.1 M Tris pH 8.0, 0.1 M KCl, 3 mM EDTA, 2 mM DTT, […] and enzyme (IMPDH human type II) at a concentration of 15 to 50 nM. This solution is incubated at 37° C. for 10 minutes. The reaction is started by adding NAD to a final concentration of 0.1 M and the initial rate is measured by following the linear increase in absorbance at 340 nm for 10 minutes. For reading in a standard spectrophotometer (path length 1 cm) the final volume in the cuvette is 1.0 ml. The assay has also been adapted to a 96 well microtiter plate format; in this case the concentrations of all the reagents remain the same and the final volume is decreased to 200 μl. For the analysis of inhibitors, the compound in question is dissolved in DMSO to a final concentration of 20 mM and added to the initial assay mixture for preincubation with the enzyme at a final volume of 2-5% (v/v). The reaction is started by the addition of NAD, and the initial rates measured as above. […] The designation “ND” is used where a given compound was not tested.

Structure (SMILES)	pKi
COC(=O)NCc1cccc(NC(=O)Nc2ccc(-c3cnco3)c(OC)c2)c1 [Compound 118]	5.00 to 6.00

same assay, conditions: IMPDH human type II, 15 to 50 nM enzyme, 37° C., tight-binding fit (Henderson); read-out: Ki

Structure (SMILES)	pKi
Nc1cccc(NC(=O)Nc2ccc(-c3cnco3)c(Cl)c2)c1 [Compound 79]	6.00 to 7.29
COc1ccc(C)cc1NC(=O)Nc1ccc(-c2cnco2)cc1 [Compound 11]	5.00 to 6.00
Cc1cnc(NC(=O)Nc2ccc(-c3cnco3)cc2)s1 [Compound 31]	< 5.00
O=C(Nc1ccc(-c2cnco2)cc1)Nc1cccc(CO)c1 [Compound 25]	5.00 to 6.00
O=C(Nc1ccc(-c2cnco2)cc1)Nc1cccc(-c2ccoc2)c1 [Compound 53]	5.00 to 6.00
COc1cc(NC(=O)Nc2cccc(CN(C)C(=O)OC(C)(C)C)c2)ccc1-c1cnco1 [Compound 117]	6.00 to 7.29
Cc1cccc(NC(=O)Nc2ccc(C#N)cc2)c1 [Compound 33]	< 5.00
COC(=O)Cc1cccc(NC(=O)Nc2ccc(-c3cnco3)cc2)c1 [Compound 47]	6.00 to 7.29
O=C(Nc1ccc(-c2cnco2)cc1)Nc1ccc(F)c([N+](=O)[O-])c1 [Compound 104]	5.00 to 6.00
COc1cc(NC(=O)Nc2cccc(CNC(=O)OCC3CCCNC3)c2)ccc1-c1cnco1 (stereo not shown) [Compound 158]	6.00 to 7.29
Cc1cccc(NC(=O)Nc2ccc(-c3ocnc3C)cc2)c1 [Compound 77]	6.00 to 7.29
COc1ccc(NC(=O)Nc2cccc(SC)c2)cc1OC [Compound 38]	< 5.00
COc1cc(NC(=O)Nc2cccc(NC(=O)Nc3ccccc3)c2)ccc1-c1cnco1 [Compound 112]	6.00 to 7.29
Cc1cc(N)cc(NC(=O)Nc2ccc(-c3cnco3)cc2)c1 [Compound 58]	5.00 to 6.00
COC(=O)c1cc(NC(=O)Nc2cccc([N+](=O)[O-])c2)ccc1-c1cnco1 [Compound 89]	5.00 to 6.00
O=C(Nc1ccc(-c2cnco2)cc1)Nc1cccc(O)c1 [Compound 27]	5.00 to 6.00
COc1ccc(Cl)cc1NC(=O)Nc1ccc(OC)c(OC)c1 [Compound 35]	5.00 to 6.00
O=C(Nc1ccc(-c2cnco2)c(Cl)c1)Nc1ccc(-c2cnco2)c(Cl)c1 [Compound 61]	< 5.00
Cc1cccc(NC(=O)Nc2ccc(C#N)c(Cl)c2)c1 [Compound 70]	5.00 to 6.00
O=C(NCc1ccccc1)Nc1ccc(-c2cnco2)cc1 [Compound 1]	5.00 to 6.00
COc1cc(NC(=O)Nc2cccc(CNC(=O)OCCCS(C)(=O)=O)c2)ccc1-c1cnco1 [Compound 157]	6.00 to 7.29
O=C(Nc1ccc(-c2cnco2)cc1)Nc1ccc([N+](=O)[O-])c(C(F)(F)F)c1 [Compound 41]	5.00 to 6.00

Structure (SMILES)	pKi
O=C(Nc1ccc(-c2cnco2)cc1)Nc1cccc(C(F)(F)F)c1 [Compound 18]	5.00 to 6.00
CCc1cccc(NC(=O)Nc2ccc(OC)c(OC)c2)c1 [Compound 37]	5.00 to 6.00
O=C(Nc1ccc(-c2cnco2)cc1)Nc1cccc([N+](=O)[O-])c1 [Compound 15]	5.00 to 6.00
COc1cc(NC(=O)Nc2ccc3c(c2)N(C(C)=O)CC3)ccc1-c1cnco1 [Compound 106]	6.00 to 7.29
COc1ccc(OC)c(NC(=O)Nc2ccc(-c3cnco3)cc2)c1 [Compound 14]	5.00 to 6.00
CSc1cc(NC(=O)Nc2cccc(CNC(=O)O[C@H]3CCOC3)c2)ccc1C#N [Compound 168]	6.00 to 7.29
O=C(Nc1ccc(-c2cnco2)cc1)Nc1ccc2c(c1)OCCO2 [Compound 39]	< 5.00
O=C(Nc1ccc(-c2cnco2)cc1)Nc1ccccc1C(F)(F)F [Compound 19]	5.00 to 6.00
COc1ccc(NC(=O)Nc2cccc(C)c2)cc1OC [Compound 28]	5.00 to 6.00
COc1cc(NC(=O)Nc2cccc(CNC(=O)OC3C(=O)OCC3(C)C)c2)ccc1-c1cnco1 (stereo not shown) [Compound 144]	6.00 to 7.29
O=C(Nc1cccc([N+](=O)[O-])c1)Nc1ccc(-c2cnco2)c(Br)c1 [Compound 64]	6.00 to 7.29
Cc1cccc(NC(=O)Nc2ccc(-c3cnco3)cc2)c1 [Compound 17]	6.00 to 7.29
COc1cc(NC(=O)Nc2cccc(NC(C)=O)c2)ccc1-c1cnco1 [Compound 84]	6.00 to 7.29
CSc1cccc(NC(=O)Nc2ccc(-c3cnco3)cc2)c1 [Compound 6]	5.00 to 6.00
CNc1cccc(NC(=O)Nc2ccc(-c3cnco3)c(Cl)c2)c1 [Compound 94]	6.00 to 7.29
COc1cc(NC(=O)Nc2cccc(CNC(=O)OCC3CCCCN3C(=O)OC(C)(C)C)c2)ccc1-c1cnco1 (stereo not shown) [Compound 152]	6.00 to 7.29
Cc1cccc(NC(=O)Nc2ccc(-c3cnco3)c(CO)c2)c1 [Compound 102]	5.00 to 6.00
Cc1cc(NC(=O)Nc2ccc(-c3cnco3)c(Cl)c2)ccn1 [Compound 62]	5.00 to 6.00
O=C(Nc1ccc(-c2cnco2)cc1)Nc1ccc(F)c(Cl)c1 [Compound 23]	5.00 to 6.00
O=C(Nc1ccc(-c2cnco2)cc1)Nc1ccc(F)c(F)c1 [Compound 4]	< 5.00
O=C(Nc1ccccc1)Nc1ccc(-c2cnco2)c(Cl)c1 [Compound 42]	6.00 to 7.29

The remaining lines, values ahead:

pKi	Structure (SMILES)
7.30 to 11.00	COc1cc(NC(=O)Nc2cccc(CNC(=O)O[C@H]3CCOC3)c2)ccc1-c1cnco1 [Compound 120]
7.30 to 11.00	COc1cc(NC(=O)Nc2cccc(CNC(=O)OCC(C)C)c2)ccc1-c1cnco1 [Compound 124]
7.30 to 11.00	COc1cc(NC(=O)Nc2cccc(CNC(=O)OC3CCSC3)c2)ccc1-c1cnco1 (stereo not shown) [Compound 160]
7.30 to 11.00	COc1cc(NC(=O)Nc2cccc(CNC(=O)OC3CCCC3)c2)ccc1-c1cnco1 [Compound 133]
7.30 to 11.00	COc1cc(NC(=O)Nc2cccc(CNC(=O)OCC3CCCCC3)c2)ccc1-c1cnco1 [Compound 135]
7.30 to 11.00	COc1cc(NC(=O)Nc2cccc(CNC(=O)OC3CCOC3)c2)ccc1-c1cnco1 (stereo not shown) [Compound 136]
7.30 to 11.00	COc1cc(NC(=O)Nc2cccc(CNC(=O)OCc3ccccn3)c2)ccc1-c1cnco1 [Compound 121]
7.30 to 11.00	CSc1cc(NC(=O)Nc2cccc(CNC(=O)O[C@H]3CCOC3)c2)ccc1C#N [Compound 165]
7.30 to 11.00	COc1cc(NC(=O)Nc2cccc(CNC(=O)OCCCCO)c2)ccc1-c1cnco1 [Compound 140]
7.30 to 11.00	COc1cc(NC(=O)Nc2cccc(CNC(=O)OC(C)(C)C)c2)ccc1-c1cnco1 [Compound 113]
7.30 to 11.00	COc1cc(NC(=O)Nc2cccc(CNC(=O)OC3CCCNC3)c2)ccc1-c1cnco1 (stereo not shown) [Compound 153]
7.30 to 11.00	COc1cc(NC(=O)Nc2cccc(C)c2)ccc1-c1cnco1 [Compound 55]
7.30 to 11.00	COc1cc(NC(=O)Nc2cccc(CNC(=O)OCC3CCOC(C)(C)O3)c2)ccc1-c1cnco1 (stereo not shown) [Compound 146]
7.30 to 11.00	COc1cc(NC(=O)Nc2cccc(CNC(=O)OCC3CCCCO3)c2)ccc1-c1cnco1 (stereo not shown) [Compound 154]
7.30 to 11.00	COc1cc(NC(=O)Nc2cccc(CNC(=O)OCCCSC)c2)ccc1-c1cnco1 [Compound 145]
7.30 to 11.00	COc1cc(NC(=O)Nc2cccc(CNC(=O)OCc3ccco3)c2)ccc1-c1cnco1 [Compound 128]
7.30 to 11.00	COc1cc(NC(=O)Nc2cccc(N(C)C(C)=O)c2)ccc1-c1cnco1 [Compound 107]
7.30 to 11.00	COc1cc(NC(=O)Nc2cccc(CNC(=O)OC[C@@H]3CNC(=O)O3)c2)ccc1-c1cnco1 [Compound 122]
7.30 to 11.00	COc1cc(NC(=O)Nc2cccc(CNC(=O)OCC3CCN(C(=O)OC(C)(C)C)CC3)c2)ccc1-c1cnco1 [Compound 148]
7.30 to 11.00	COc1cc(NC(=O)Nc2cccc(CNC(=O)OC3CCOCC3)c2)ccc1-c1cnco1 [Compound 131]
